Measured values taken from patent US8741897B2, “Glucocorticoid mimetics, methods of making them, pharmaceutical compositions and uses thereof” (Boehringer Ingelheim Pharmaceuticals Inc., priority 2003, dated 2014).

Experiments:
[1] = target: T1, human glucocorticoid receptor (GR) complex (Homo sapiens, UniProt P04150); assay: Glucocorticoid receptor competitive binding assay (fluorescence polarization, TAMRA-labeled dexamethasone probe); conditions: compounds of Formula (IA)
T1 construct: made in house; host or cells: insect expression system (baculovirus lysate)
T1 sequence (P04150 1-777): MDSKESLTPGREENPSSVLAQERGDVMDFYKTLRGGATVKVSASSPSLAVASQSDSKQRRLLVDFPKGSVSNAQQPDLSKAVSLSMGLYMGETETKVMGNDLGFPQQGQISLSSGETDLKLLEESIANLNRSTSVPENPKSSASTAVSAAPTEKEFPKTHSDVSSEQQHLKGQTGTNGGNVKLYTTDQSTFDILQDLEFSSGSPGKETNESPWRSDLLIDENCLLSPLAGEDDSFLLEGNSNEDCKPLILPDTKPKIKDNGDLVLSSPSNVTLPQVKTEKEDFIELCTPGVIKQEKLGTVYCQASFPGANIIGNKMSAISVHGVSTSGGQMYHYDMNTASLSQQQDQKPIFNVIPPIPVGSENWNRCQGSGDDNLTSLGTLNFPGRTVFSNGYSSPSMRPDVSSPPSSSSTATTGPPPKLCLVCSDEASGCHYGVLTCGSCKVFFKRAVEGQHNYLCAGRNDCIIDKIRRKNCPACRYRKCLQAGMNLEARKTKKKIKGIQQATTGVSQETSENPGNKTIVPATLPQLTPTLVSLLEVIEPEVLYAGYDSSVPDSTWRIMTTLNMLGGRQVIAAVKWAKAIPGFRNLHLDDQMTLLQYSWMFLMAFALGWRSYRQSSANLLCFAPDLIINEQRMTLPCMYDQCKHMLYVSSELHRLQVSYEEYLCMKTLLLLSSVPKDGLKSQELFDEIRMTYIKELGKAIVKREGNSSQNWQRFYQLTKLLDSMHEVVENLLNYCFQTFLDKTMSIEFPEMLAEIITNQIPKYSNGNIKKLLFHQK
Procedure, shortened: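 Fluorescence-polarization competition against 15 nM TAMRA-dexamethasone (stock added to the mix) for human GR complex from baculovirus lysate diluted 1:170. Buffer: 10 mM TES, 50 mM KCl, 20 mM Na2MoO4, 1.5 mM EDTA, 0.04% CHAPS, 10% glycerol, 1 mM DTT, pH 7.4. IC50 from 4-parameter logistic fit.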

[2] = test system: glucocorticoid receptor function; assay: one or more of the above assays (GR binding and glucocorticoid receptor cell assays: aromatase, IL-6, TAT, MMTV-Luc, IL-8, ICAM-Luc); type: cell-based; conditions: assay not specified per compound

activity in the GR binding assay [1]	Compound	activity as agonists of the glucocorticoid receptor function in one or more of the above assays [2]
potent activity	Cc1ccc(O)c(C(C)(C)CC(O)(Cc2cc3c(C)cc(C#N)cc3[nH]2)C(F)(F)F)c1 (stereo not drawn) [2-[2-Hydroxy-4-(2-hydroxy-5-methylphenyl)-4-methyl-2-trifluoromethylpentyl]-4-methyl-1H-indole-6-carbonitrile]	potent agonists
potent activity	Cc1ccc(C(C)(C)CC(O)(Cc2ccnc3ccccc23)C(F)(F)F)cc1C (stereo not drawn) [4-(3,4-Dimethylphenyl)-1,1,1-trifluoro-4-methyl-2-quinolin-4-ylmethylpentan-2-ol]	potent agonists
potent activity	Cc1cc2[nH]c(CC(O)(CC(C)(C)c3cc(Cl)cc4c3OCC4)C(F)(F)F)cc2cn1 (stereo not drawn) [4-(5-Chloro-2,3-dihydrobenzofuran-7-yl)-1,1,1-trifluoro-4-methyl-2-(6-methyl-1H-pyrrolo[3,2-c]pyridin-2-ylmethyl)pentan-2-ol]	potent agonists
potent activity	Cc1ccccc1C(C)(C)CC(O)(Cc1ccnc2ccccc12)C(F)(F)F (stereo not drawn) [1,1,1-Trifluoro-4-methyl-2-quinolin-4-ylmethyl-4-o-tolylpentan-2-ol]	potent agonists
potent activity	CC(C)(CC(O)(Cc1cc2cc(C(F)(F)F)ncc2[nH]1)C(F)(F)F)c1cc(Cl)cc2c1OCC2 (stereo not drawn) [4-(5-Chloro-2,3-dihydrobenzofuran-7-yl)-1,1,1-trifluoro-4-methyl-2-(5-trifluoromethyl-1H-pyrrolo[2,3-c]pyridin-2-ylmethyl)pentan-2-ol]	potent agonists
potent activity	COc1ccc(F)cc1C(C)(C)CC(O)(Cc1cc2c(C#N)nccc2[nH]1)C(F)(F)F (stereo not drawn) [2-[4-(5-Fluoro-2-methoxyphenyl)-2-hydroxy-4-methyl-2-trifluoromethylpentyl]-1H-pyrrolo[3,2-c]pyridine-4-carbonitrile]	potent agonists
potent activity	CC(C)(CC(O)(Cc1ccnc(F)c1)C(F)(F)F)c1cc(F)ccc1O (stereo not drawn) [4-Fluoro-2-[4,4,4-trifluoro-3-(2-fluoropyridin-4-ylmethyl)-3-hydroxy-1,1-dimethylbutyl]phenol]	potent agonists
potent activity	Cc1ccc(F)cc1C(C)(C)CC(O)(Cc1cc2cnccc2[nH]1)C(F)(F)F (stereo not drawn) [1,1,1-Trifluoro-4-(5-fluoro-2-methylphenyl)-4-methyl-2-(1H-pyrrolo[3,2-c]pyridin-2-ylmethyl)pentan-2-ol]	potent agonists
potent activity	Cc1ccc(C(C)(C)CC(O)(Cc2ccnc3ccccc23)C(F)(F)F)cc1F (stereo not drawn) [1,1,1-Trifluoro-4-(3-fluoro-4-methylphenyl)-4-methyl-2-quinolin-4-ylmethylpentan-2-ol]	potent agonists
potent activity	CC(C)(CC(O)(Cc1cc2nc(C#N)ccc2[nH]1)C(F)(F)F)c1cc(Cl)cc2c1OCC2 (stereo not drawn) [2-[4-(5-Chloro-2,3-dihydrobenzofuran-7-yl)-2-hydroxy-4-methyl-2-trifluoromethylpentyl]-1H-pyrrolo[3,2-b]pyridine-5-carbonitrile]	potent agonists
potent activity	Cc1cc(CC(O)(CC(C)(C)c2ccc(F)cc2)C(F)(F)F)c2ccccc2n1 (stereo not drawn) [1,1,1-Trifluoro-4-(4-fluorophenyl)-4-methyl-2-(2-methylquinolin-4-ylmethyl)pentan-2-ol]	potent agonists
potent activity	CC(C)(CC(O)(Cc1ccnc(Br)c1)C(F)(F)F)c1cc(F)ccc1O (stereo not drawn) [2-[3-(2-Bromopyridin-4-ylmethyl)-4,4,4-trifluoro-3-hydroxy-1,1-dimethylbutyl]-4-fluorophenol]	potent agonists
potent activity	CN(C)C(=O)c1ccc2[nH]c(CC(O)(CC(C)(C)c3cc(Br)cc4c3OCC4)C(F)(F)F)cc2c1 (stereo not drawn) [2-[4-(5-Bromo-2,3-dihydrobenzofuran-7-yl)-2-hydroxy-4-methyl-2-trifluoromethylpentyl]-1H-indole-5-carboxylic acid dimethylamide]	potent agonists
potent activity	COc1ccc(F)cc1C(C)(C)CC(O)(Cc1cc2cc(NC(C)=O)ccc2[nH]1)C(F)(F)F (stereo not drawn) [N-{2-[4-(5-Fluoro-2-methoxyphenyl)-2-hydroxy-4-methyl-2-trifluoromethylpentyl]-1H-indol-5-yl}acetamide]	potent agonists
potent activity	Cc1ccc(C(C)(C)CC(O)(Cc2cc3ccccc3[nH]2)C(F)(F)F)cc1C (stereo not drawn) [4-(3,4-Dimethylphenyl)-1,1,1-trifluoro-2-(1H-indol-2-ylmethyl)-4-methylpentan-2-ol]	potent agonists
potent activity	Cc1ccc(C)c(C(C)(C)CC(O)(Cc2cc3ccccc3[nH]2)C(F)(F)F)c1 (stereo not drawn) [4-(2,5-Dimethylphenyl)-1,1,1-trifluoro-2-(1H-indol-2-ylmethyl)-4-methylpentan-2-ol]	potent agonists
potent activity	CC(C)(CC(O)(Cc1cc2ccccc2[nH]1)C(F)(F)F)c1cccc(Cl)c1 (stereo not drawn) [4-(3-Chlorophenyl)-1,1,1-trifluoro-2-(1H-indol-2-ylmethyl)-4-methylpentan-2-ol]	potent agonists
potent activity	COc1ccc(F)cc1C(C)(C)CC(O)(Cc1cc2c(OC)ncnc2[nH]1)C(F)(F)F (stereo not drawn) [1,1,1-Trifluoro-4-(5-fluoro-2-methoxyphenyl)-2-(4-methoxy-7H-pyrrolo[2,3-d]pyrimidin-6-ylmethyl)-4-methylpentan-2-ol]	potent agonists
potent activity	CC(C)(CC(O)(Cc1cc2cc(C#N)ccc2[nH]1)C(F)(F)F)c1cccc(C2OCCO2)c1 (stereo not drawn) [2-[4-(3-[1,3]Dioxolan-2-ylphenyl)-2-hydroxy-4-methyl-2-trifluoromethylpentyl]-1H-indole-5-carbonitrile]	potent agonists
potent activity	COc1ccc(F)cc1C(C)(C)CC(O)(Cc1cc2cc(Cl)ncc2[nH]1)C(F)(F)F (stereo not drawn) [1,1,1-Trifluoro-4-(5-fluoro-2-methoxyphenyl)-2-(5-chloro-1H-pyrrolo[2,3-c]pyridin-2-ylmethyl)-4-methylpentan-2-ol]	potent agonists
potent activity	Cc1ccc(F)cc1C(C)(C)CC(O)(Cc1cc2ccnc(F)c2[nH]1)C(F)(F)F (stereo not drawn) [1,1,1-Trifluoro-4-(5-fluoro-2-methylphenyl)-2-(7-fluoro-1H-pyrrolo[2,3-c]pyridin-2-ylmethyl)-4-methylpentan-2-ol]	potent agonists
potent activity	Cc1cc(C#N)cc2[nH]c(CC(O)(CC(C)(C)c3cccc4c3OCO4)C(F)(F)F)cc12 (stereo not drawn) [2-(4-Benzo[1,3]dioxol-4-yl-2-hydroxy-4-methyl-2-trifluoromethylpentyl)-4-methyl-1H-indole-6-carbonitrile]	potent agonists
potent activity	Cc1cc(CC(O)(CC(C)(C)c2cc(F)ccc2C)C(F)(F)F)cc(C)n1 (stereo not drawn) [2-(2,6-Dimethylpyridin-4-ylmethyl)-1,1,1-trifluoro-4-(5-fluoro-2-methylphenyl)-4-methylpentan-2-ol]	potent agonists
potent activity	CC(C)c1ccc(O)c(C(C)(C)CC(O)(Cc2[nH]c3ccccc3c2C#N)C(F)(F)F)c1 (stereo not drawn) [2-[2-Hydroxy-4-(2-hydroxy-5-isopropylphenyl)-4-methyl-2-trifluoromethylpentyl]-1H-indole-3-carbonitrile]	potent agonists
